{"source": "patent US20170313755A1", "about": "(priority 2016, published 2017)", "molecules": {"B1": {"name": "IGF1 (Y^B16L^B17) analog (ligand)", "chain 1": "GIVDECCFRSCDLRRLEMYCA", "chain 2": "GPETLCGAELVDALYLVCGDRGFYFNKPT", "notes": "Two chain analog; also called IGF analog"}}, "note": "“Also recorded” adds a separate entry of the source.", "data": [{"tested_on": "STZ-mice", "assay": "Blood glucose in STZ diabetic mice after insulin/antagonist peptide conjugates", "format": "in vivo", "details": "10 nmol/kg, mice fasted 2 hours", "protocol": "The peptides were tested in STZ-mice, due to their high fasting blood glucose levels.", "values": [{"molecule": "#6(A2)-Cys-Insulin: B29 modified insulin disulfide-conjugated to 6(A2)Cys SAEEEWAQIQSEVWGRGSPSYC (SEQ ID NO: 172)", "blood glucose response versus equivalent dose of native insulin": "behaved identically to an equivalent dose of native insulin"}]}, {"tested_on": "insulin receptor A (IRA) and insulin receptor B (IRB) isoforms", "assay": "Insulin receptor phosphorylation assay in receptor transfected HEK293 cells", "format": "cell-based, human", "details": "agonism", "protocol": "Color development was stopped 5 min later by adding 0.05 ml 1 N HCl. Absorbance at 450 nm was measured on Titertek Multiscan MCC340 (ThermoFisher, Pittsburgh, Pa.). Absorbance vs. peptide concentration dose response curves were plotted and EC50 values were determined by using Origin software (OriginLab, Northampton, Mass.).\nOptical density at 450 nm was graphed as a function of peptide concentration using Origin Pro 9.0 graphing software.", "values": [{"molecule": "#6(A1)-Cys-Insulin: B29 modified insulin disulfide-conjugated to 6(A1)Cys ALEEEWAQIQSEVWGRGPSYC (SEQ ID NO: 171)", "agonist (maximal) activity at the insulin receptor isoforms": "almost no effect upon bioactivity"}, {"molecule": "#6(A2)-Cys-Insulin: B29 modified insulin disulfide-conjugated to 6(A2)Cys SAEEEWAQIQSEVWGRGSPSYC (SEQ ID NO: 172)", "agonist (maximal) activity at the insulin receptor isoforms": "restored almost all of the potency and activity", "potency at the insulin receptor isoforms": "restored almost all of the potency and activity"}, {"molecule": "#6(A3)-Cys-Insulin: B29 modified insulin disulfide-conjugated to 6(A3)Cys SLAEEWAQIQSEVWGRGSPSYC (SEQ ID NO: 173)", "agonist (maximal) activity at the insulin receptor isoforms": "little effect on maximal activity", "potency at the insulin receptor isoforms": "shift the potency"}, {"molecule": "#6(I2)-Cys-Insulin: B29 modified insulin disulfide-conjugated to 6(I2)Cys SIEEEWAQIQSEVWGRGSPSYC (SEQ ID NO: 175)", "agonist (maximal) activity at the insulin receptor isoforms": "very similar, low maximal activities"}, {"molecule": "#6(Q2)-Cys-Insulin: B29 modified insulin disulfide-conjugated to 6(Q2)Cys SQEEEWAQIQSEVWGRGSPSYC (SEQ ID NO: 180)", "agonist (maximal) activity at the insulin receptor isoforms": "without a significant decrease in maximal activity; also recorded: high of maximal activity", "potency at the insulin receptor isoforms": "shift in potency; also recorded: decrease in potency"}, {"molecule": "#6(V2)-Cys-Insulin: B29 modified insulin disulfide-conjugated to 6(V2)Cys SVEEEWAQIQSEVWGRGSPSYC (SEQ ID NO: 176)", "agonist (maximal) activity at the insulin receptor isoforms": "slight increase in maximal activity"}, {"molecule": "#6(dL2)-Cys-Insulin: B29 modified insulin disulfide-conjugated to 6(dL2)Cys SdLEEEWAQIQSEVWGRGSPSYC (SEQ ID NO: 174)", "agonist (maximal) activity at the insulin receptor isoforms": "low activity", "potency at the insulin receptor isoforms": "decreased potency"}, {"molecule": "#6(des1-5)-Cys-Insulin: B29 modified insulin disulfide-conjugated to 6(des1-5)Cys WAQIQSEVWGRGSPSYC (SEQ ID NO: 170)", "agonist (maximal) activity at the insulin receptor isoforms": "full activity", "potency at the insulin receptor isoforms": "full potency"}, {"molecule": "#Insulin-Cys-4: B29 modified insulin disulfide-conjugated to Cys4 CGSLDESFYDWFERQLG (SEQ ID NO: 166)", "agonist (maximal) activity at the insulin receptor isoforms": "only a small change in maximal activity", "potency at the insulin receptor isoforms": "a small decrease in potency"}, {"molecule": "modified insulin: native insulin modified with an NHS ester to carry one additional thiol functional group at the B29 lysine", "agonist (maximal) activity at the insulin receptor isoforms": "fully activating the insulin receptor isoforms", "potency at the insulin receptor isoforms": "slightly reduced potency"}]}, {"tested_on": "insulin receptor A (IRA) and insulin receptor B (IRB) isoforms", "assay": "Insulin receptor phosphorylation assay in receptor transfected HEK293 cells", "format": "cell-based, human", "details": "agonism, both receptor isoforms", "values": [{"molecule": "#6(F2)-Cys-Insulin: B29 modified insulin disulfide-conjugated to 6(F2)Cys SFEEEWAQIQSEVWGRGSPSYC (SEQ ID NO: 177)", "maximal activity relative to native insulin": "~50%"}, {"molecule": "#6(W2)-Cys-Insulin: B29 modified insulin disulfide-conjugated to 6(W2)Cys SWEEEWAQIQSEVWGRGSPSYC (SEQ ID NO: 178)", "maximal activity relative to native insulin": "approximately 60%"}, {"molecule": "#6(Y2)-Cys-Insulin: B29 modified insulin disulfide-conjugated to 6(Y2)Cys SYEEEWAQIQSEVWGRGSPSYC (SEQ ID NO: 179)", "maximal activity relative to native insulin": "approximately 70%"}]}, {"tested_on": "insulin receptor A (IRA) and insulin receptor B (IRB) isoforms", "assay": "Insulin receptor phosphorylation assay in receptor transfected HEK293 cells", "format": "cell-based, human", "details": "conjugate against native insulin", "values": [{"molecule": "#4-Cys-Insulin: B29 modified insulin disulfide-conjugated to 4Cys GSLDESFYDWFERQLGC (SEQ ID NO: 167)", "antagonism at the insulin receptor isoforms": "some degree of antagonism"}]}, {"tested_on": "mice", "assay": "Comparative insulin tolerance tests on mice (acylated insulin analogs)", "format": "in vivo", "details": "27 nmol/kg and 90 nmol/kg; even after 8 hours", "method": "The polypeptides were tested at two different concentrations (27 nmol/kg and 90 nmol/kg). The acylated insulins included MIU-41, MIU-36 and MIU-37.\nThe compounds were tested at two different concentrations (27 nmol/kg and 90 nmol/kg).", "values": [{"molecule": "[B^1(C16-K0,H5,H10,Y16,L17)26A: A1(N18,N21)] [MIU-36]", "blood glucose lowering relative to native insulin": "more basal and sustained lowered glucose levels"}, {"molecule": "[B^1(H5,H10,Y16,L17)26A: A^1(H8,rEC16-K14,N18,N21)] [MIU-41]", "blood glucose lowering relative to native insulin": "more basal and sustained lowered glucose levels"}, {"molecule": "[B^1(H5,H10,Y16,L17,C16rE-K22)26A: A^1(N18,N21)] [MIU-37]", "blood glucose lowering relative to native insulin": "more basal and sustained lowered glucose levels"}]}, {"tested_on": "insulin receptor A (IRA) and insulin receptor B (IRB) isoforms", "assay": "not given", "details": "non-covalent addition (in trans); previous work; cited from earlier work", "values": [{"molecule": "SLEEEWAQIQSEVWGRGSPSYC (synthetic insulin receptor antagonist peptide) [#6Cys]", "antagonism of native insulin by unconjugated peptide (words)": "incapable of antagonizing native insulin"}]}, {"tested_on": "insulin receptor A (IRA) and insulin receptor B (IRB) isoforms", "assay": "not given", "details": "non-covalent addition (in trans); previous work; listed as #6-Cys; cited from earlier work", "values": [{"molecule": "SLEEEWAQIQSEVWGRGSPSYC (synthetic insulin receptor antagonist peptide) [#6Cys]", "antagonism of native insulin by unconjugated peptide (words)": "incapable of antagonism in vitro"}]}, {"target": "T1, human insulin receptor (human, UniProt P06213 28-1382)", "T1 construct": "whole, on cells; Stood in the assay as plasma membrane fragments on wheat germ agglutinin SPA beads, not as whole cells", "assay": "scintillation proximity competition binding against 125I-insulin, membranes with human insulin receptor", "details": "not given", "method": "The affinity of each peptide for the insulin or IGF-1 receptor was measured in a competition binding assay utilizing scintillation proximity technology. […] Non-specifically bound (NSB) radioactivity was measured in the wells with a four-fold concentration excess of “cold” native ligand than the highest concentration in test samples. Total bound radioactivity was detected in the wells with no competitor. Percent specific binding was calculated as following: % Specific Binding=(Bound-NSB/Total bound-NSB)×100. IC50 values were determined by using Origin software (OriginLab, Northampton, Mass.).", "units": {"IC50": "nM"}, "values": [{"molecule": "B1", "IC50": 0.51}]}]}
